Reference: patent US20030206892A1, “Methods of modulating activity of DXR” (priority 2000, published 2003)
≈ marks a conversion by molar mass, not a printed value.

Tests used:
Assay type in all cases: cell-based
[1] = tested on: E. coli DH5α; assay: E. coli DXR MIC experiment, parent strain; conditions: Escherichia coli, LB, overnight at 37° C., read-out: E. coli DXR MICs, E. coli DH5α
Description: (§1) The MIC protocol used techniques well known to those skilled in the art. All strains were grown overnight in LB with appropriate selection. The compounds are mixed or put in contact with DMSO. Fifty μl of LB was placed in each well of the microtiter plate, except in Column 1. To obtain a top concentration of 256 μl/mil of compound after the inoculum is added: 10 μl of a 5.12 mg/ml stock is mixed with 90 μl of LB. This mixture was placed in the first well of its assigned row of a 96-well plate. The compound was then serially diluted 1:2 by taking 50 μl from the first well in the row and mixing it with the second well of the same row, Column 2. Then, 50 μl from that well was mixed with the third well in the row, Column 3 and so on until Column 11. Fifty μl of the serial dilution from Column 11 was discarded. The final well in the row, column 12, was the growth control. No compound was placed in column 12. The overnight culture was diluted 1:50 into LB. Fifty μl of this culture dilution was added to every well of the microtiter plate. This dilutes the inoculum and drug 1:2. The final inoculum was approximately 1×10^5 cells/ml. The 96-well pates are then incubated overnight at 37° C.

[2] = tested on: E. coli DH5α + (pET28); assay: E. coli DXR MIC experiment, empty vector strain; conditions: Escherichia coli, LB, overnight at 37° C., read-out: E. coli DXR MICs, E. coli DH5α + (pET28)
Description: as §1

[3] = tested on: E. coli DH5α + (pET28::dxr), E. coli dxr; assay: E. coli DXR MIC experiment, strain overexpressing E. coli DXR
Description: as §1

[4] = tested on: E. coli DH5α + (pET28::dxr), H. influenzae dxr; assay: H. influenzae DXR MIC experiment, strain expressing H. influenzae DXR
Description: as §1, with “Fifty μl of LB was placed in each well of the microtiter plate, except in Column 1. To obtain a top concentration of 256 μl/mil of compound after the inoculum is added: 10 μl of a 5.12 mg/ml stock is mixed with 90 μl of LB.” left out, “The overnight culture was diluted 1:50 into LB.” left out

Row | Compound | MIC [1] [µg/mL] | MIC [2] [µg/mL] | MIC increase for cells overexpressing E. coli DXR ([3]; E. coli cells (DH5α) overexpressing E. coli DXR) [fold] | MIC ([3]; Escherichia coli, read-out: E. coli DXR MICs, E. coli DH5α + (pET28::dxr)) [µg/mL] | MIC increase for cells expressing H. influenzae DXR ([4]; E. coli cells (DH5α) expressing H. influenzae DXR) [fold] | MIC ([4]; Escherichia coli, read-out: H. influenzae DXR MICs, E. coli DH5α + (pET28::dxr)) [µg/mL]
1 | CC1(C)S[C@@H]2[C@H](NC(=O)[C@H](N)c3ccc(O)cc3)C(=O)N2[C@H]1C(=O)O [Amoxicillin] | 16 (≈ 43.8 µM) | – | – | – | – | –
2 | O=CN(O)CCCP(=O)(O)O [Fosmidomycin] | 16 (≈ 87.4 µM) | 16 | 8 | 128 | 16 | 256
